{"source": "paper PMC6792352", "about": "“Limited Chemical Structural Diversity Found to Modulate Thyroid Hormone Receptor in the Tox21 Chemical Library” (Environmental Health Perspectives, 2019)", "note": "Counter-ions that a name gives are not always drawn.", "data": [{"experiment": "in vitro", "details": "rat, gh3-tre-luc cells, AC50 (uM) modified / 1000", "units": {"CC50 at 24 h": "µM"}, "values": [{"smiles": "C=C(C)C(=O)OC(C)C", "note": "[Isopropyl methacrylate]", "CC50 at 24 h": "> 90"}, {"smiles": "CC(=O)c1ccccc1O", "note": "[2-Hydroxyacetophenone]", "CC50 at 24 h": "> 90"}, {"smiles": "OC[C@H]1O[C@@H](Oc2ccc(O)cc2)[C@H](O)[C@@H](O)[C@@H]1O", "note": "[Arbutin]", "CC50 at 24 h": "> 90"}, {"smiles": "C/C=C1\\[C@H]2C=C(C)C[C@]1(N)c1ccc(=O)[nH]c1C2", "note": "[Huperzine A]", "CC50 at 24 h": "> 50"}, {"smiles": "CCCCOC(=O)COc1ccc(Cl)cc1Cl", "note": "[2,4-D 1-butyl ester]", "CC50 at 24 h": "> 90"}, {"smiles": "NC(=O)c1ccccc1O", "note": "[Salicylamide]", "CC50 at 24 h": "> 90"}, {"smiles": "Cn1cnc2c1c(=O)[nH]c(=O)n2C", "note": "[Theobromine]", "CC50 at 24 h": "> 40"}, {"smiles": "Brc1c(NC2=NCCN2)ccc2nccnc12", "note": "[Brimonidine]", "CC50 at 24 h": "> 50"}, {"smiles": "CC(=O)OCCOC(C)=O", "note": "[1,2-Ethanediol diacetate]", "CC50 at 24 h": "> 90"}, {"smiles": "CC(C)(C)c1ccc(CN2CCN(C(c3ccccc3)c3ccc(Cl)cc3)CC2)cc1", "note": "(stereo not drawn) [Buclizine dihydrochloride]", "CC50 at 24 h": 32.6}, {"smiles": "O=c1cc[nH]c(=S)[nH]1", "note": "[Thiouracil]", "CC50 at 24 h": "> 90"}, {"smiles": "CC=C(C)C(C)=O", "note": "[3-Methyl-3-penten-2-one]", "CC50 at 24 h": "> 90"}, {"smiles": "CC(C)COC(=O)/C=C/c1ccccc1", "note": "[Isobutyl 3-phenylacrylate]", "CC50 at 24 h": "> 90"}, {"smiles": "CC(=O)CC(=O)Nc1ccccc1C", "note": "[N-(2-Methylphenyl)-3-oxobutanamide]", "CC50 at 24 h": "> 90"}, {"smiles": "NC(=O)c1ccc[n+]([C@@H]2O[C@H](COP(=O)([O-])OP(=O)(O)OC[C@H]3O[C@@H](n4cnc5c(N)ncnc54)[C@H](O)[C@@H]3O)[C@@H](O)[C@H]2O)c1", "note": "[Nadide]", "CC50 at 24 h": "> 20"}, {"smiles": "Cc1ccc(-n2nc(C(C)(C)C)cc2NC(=O)Nc2ccc(OCCN3CCOCC3)c3ccccc23)cc1", "note": "[Doramapimod]", "CC50 at 24 h": "> 50"}, {"smiles": "CN(C)CCC=C1c2ccccc2C=Cc2ccccc21", "note": "[Cyclobenzaprine hydrochloride]", "CC50 at 24 h": 14.5}, {"smiles": "CN(C)CCC=C1c2ccccc2COc2ccccc21", "note": "[Doxepin hydrochloride]", "CC50 at 24 h": 13.5}, {"smiles": "CS(=O)(=O)CCNCc1ccc(-c2ccc3ncnc(Nc4ccc(OCc5cccc(F)c5)c(Cl)c4)c3c2)o1", "note": "[Lapatinib]", "CC50 at 24 h": "> 50"}, {"smiles": "O=c1[nH]c2ccccc2o1", "note": "[2-Benzoxazolinone]", "CC50 at 24 h": "> 90"}, {"smiles": "C=C(C)CS(=O)(=O)O", "note": "[Sodium 2-methylprop-2-ene-1-sulfonate]", "CC50 at 24 h": "> 90"}, {"smiles": "CCCCOC(=O)CC(CC(=O)OCCCC)(OC(C)=O)C(=O)OCCCC", "note": "[Acetyl tributyl citrate]", "CC50 at 24 h": "> 90"}, {"smiles": "C[N@+]12CCCC[C@@H]1CCC(=C(c1cccs1)c1cccs1)C2", "note": "(racemic) [Tiquizium bromide]", "CC50 at 24 h": "> 50"}, {"smiles": "C=CC(C)(CCC=C(C)C)OC=O", "note": "(stereo not drawn) [Linalyl formate]", "CC50 at 24 h": "> 90"}, {"smiles": "O=C(O)c1nc(=O)[nH]c(=O)[nH]1", "note": "[Potassium oxonate]", "CC50 at 24 h": "> 50"}, {"smiles": "C[C@@H](O)[C@H]1C(=O)N2C(C(=O)O)=C([C@H]3CCCO3)S[C@H]12", "note": "[Fropenem]", "CC50 at 24 h": "> 50"}, {"smiles": "COC(=O)CCS", "note": "[3-Mercaptopropionic acid methyl ester]", "CC50 at 24 h": "> 90"}, {"smiles": "OCCN1CCN(CC/C=C2/c3ccccc3Sc3ccc(Cl)cc32)CC1", "note": "[Zuclopenthixol dihydrochloride]", "CC50 at 24 h": 8.55}, {"smiles": "CC(=O)Nc1ccc(S(=O)(=O)Nc2ccc([N+](=O)[O-])cc2)cc1", "note": "[Sulfanitran]", "CC50 at 24 h": "> 50"}, {"smiles": "CC(C)=CCOC(=O)c1ccccc1", "note": "[3-Methyl-2-butenyl benzoate]", "CC50 at 24 h": "> 90"}, {"smiles": "CO[C@@H]1COCC[C@@H]1N[C@@H]1CC[C@@](C(=O)N2CCc3ncc(C(F)(F)F)cc3C2)(C(C)C)C1", "note": "[MK-812]", "CC50 at 24 h": "> 90"}, {"smiles": "O=C(C[S+]([O-])Cc1ccco1)NC/C=C\\COc1cc(CN2CCCCC2)ccn1", "note": "(stereo not drawn) [Lafutidine]", "CC50 at 24 h": "> 50"}, {"smiles": "CC1(O)CSC(C)(O)CS1", "note": "(stereo not drawn) [2,5-Dimethyl-1,4-dithiane-2,5-diol]", "CC50 at 24 h": "> 90"}, {"smiles": "CCOCCOCCOC(C)=O", "note": "[2-(2-Ethoxyethoxy)ethyl acetate]", "CC50 at 24 h": "> 90"}, {"smiles": "O=C(O)CC(C(=O)O)C(CC(=O)O)C(=O)O", "note": "(stereo not drawn) [1,2,3,4-Butanetetracarboxylic acid]", "CC50 at 24 h": "> 90"}, {"smiles": "CC(=O)CC(=O)Nc1ccccc1", "note": "[Acetoacetanilide]", "CC50 at 24 h": "> 90"}, {"smiles": "Cc1ccc(S)cc1", "note": "[4-Thiocresol]", "CC50 at 24 h": "> 90"}, {"smiles": "NC(=O)c1ccccc1", "note": "[Benzamide]", "CC50 at 24 h": "> 90"}, {"smiles": "CSCC[C@H](NC(=O)[C@H](Cc1ccc(OS(=O)(=O)O)cc1)NC(=O)[C@@H](N)CC(=O)O)C(=O)NCC(=O)N[C@@H](Cc1c[nH]c2ccccc12)C(=O)N[C@@H](CCSC)C(=O)N[C@@H](CC(=O)O)C(=O)N[C@@H](Cc1ccccc1)C(N)=O", "note": "[Sincalide]", "CC50 at 24 h": "> 50"}, {"smiles": "N#CC1(N=NC2(C#N)CCCCC2)CCCCC1", "note": "[1,1'-Diazene-1,2-diyldicyclohexanecarbonitrile]", "CC50 at 24 h": "> 90"}, {"smiles": "O=[N+]([O-])c1cc(C(F)(F)F)ccc1Cl", "note": "[1-Chloro-2-nitro-4-(trifluoromethyl)benzene]", "CC50 at 24 h": "> 90"}, {"smiles": "O=C(CS)OCCOC(=O)CS", "note": "[Ethane-1,2-diyl bis(sulfanylacetate)]", "CC50 at 24 h": "> 90"}, {"smiles": "CCCCCCCC(=O)Oc1c(Br)cc(C#N)cc1Br", "note": "[Bromoxynil octanoate]", "CC50 at 24 h": "> 90"}, {"smiles": "CC(=O)Nc1ccccc1C", "note": "[N-Acetyl-o-toluidine]", "CC50 at 24 h": "> 100"}, {"smiles": "CCN1CCc2nc(N)oc2CC1", "note": "[Azepexole hydrochloride]", "CC50 at 24 h": "> 50"}, {"smiles": "CCC(=O)O[C@]1(C(=O)SCF)[C@H](C)C[C@H]2[C@@H]3C[C@H](F)C4=CC(=O)C=C[C@]4(C)[C@@]3(F)[C@@H](O)C[C@@]21C", "note": "[Fluticasone propionate]", "CC50 at 24 h": "> 20"}, {"smiles": "CCCOC(=O)CC", "note": "[Propyl propionate]", "CC50 at 24 h": "> 90"}, {"smiles": "CC(C)(C)NCCNC(C)(C)C", "note": "[N,N'-Di-tert-butylethane-1,2-diamine]", "CC50 at 24 h": "> 90"}, {"smiles": "CC(=O)O[C@H]1C[C@H](O[C@H]2[C@@H](O)C[C@H](O[C@H]3[C@@H](O)C[C@H](O[C@H]4CC[C@@]5(C)[C@H](CC[C@@H]6[C@@H]5CC[C@]5(C)[C@@H](C7=CC(=O)OC7)[C@@H](O)C[C@]65O)C4)O[C@@H]3C)O[C@@H]2C)O[C@H](C)[C@H]1O[C@@H]1O[C@H](CO)[C@@H](O)[C@H](O)[C@H]1O", "note": "[Lanatoside B]", "CC50 at 24 h": "> 50"}, {"smiles": "NNc1nnc(Cc2ccncc2)c2ccccc12", "note": "[Picodralazine]", "CC50 at 24 h": "> 50"}, {"smiles": "CC(=O)c1ccc(Cl)c(Cl)c1Cl", "note": "[2',3',4'-Trichloroacetophenone]", "CC50 at 24 h": "> 90"}, {"smiles": "NS(=O)(=O)c1cc(-c2nnn[nH]2)c(NCc2cccs2)cc1Cl", "note": "[Azosemide]", "CC50 at 24 h": "> 50"}, {"smiles": "CCCC(=O)C(=O)O", "note": "[2-Oxopentanoic acid]", "CC50 at 24 h": "> 90"}, {"smiles": "NCCCC[C@H](NC(=O)[C@@H]1CCCN1C(=O)[C@@H]1CSSC[C@H](N)C(=O)N[C@@H](Cc2ccc(O)cc2)C(=O)N[C@@H](Cc2ccccc2)C(=O)N[C@@H](CCC(N)=O)C(=O)N[C@@H](CC(N)=O)C(=O)N1)C(=O)NCC(N)=O", "note": "[Lypressin]", "CC50 at 24 h": "> 50"}, {"smiles": "O=C(c1ccc(F)cc1)C1CCN(CCn2c(=O)[nH]c3ccccc3c2=O)CC1", "note": "[Ketanserin]", "CC50 at 24 h": "> 50"}, {"smiles": "COc1cc(C)nc(-n2nc(C)cc2OC)n1", "note": "[Epirizole]", "CC50 at 24 h": "> 20"}, {"smiles": "Cc1ccco1", "note": "[2-Methylfuran]", "CC50 at 24 h": "> 90"}]}, {"experiment": "in vitro", "details": "rat, gh3-tre-luc cells, AC50 (uM) modified / 1000, Tox21_110001=Tox21_110303; viability, 1 nM T3 present, 24 h", "units": {"CC50 at 24 h": "µM"}, "values": [{"smiles": "Cc1cccc(C)c1N=C1NCCCS1", "note": "[Xylazine]", "CC50 at 24 h": "> 50"}]}, {"experiment": "in vitro", "details": "rat, gh3-tre-luc cells, AC50 (uM) modified / 1000, Tox21_110001=Tox21_201315; viability, 1 nM T3 present, 24 h", "units": {"CC50 at 24 h": "µM"}, "values": [{"smiles": "CCOC(=O)C1OC1(C)c1ccccc1", "note": "(stereo not drawn) [Ethyl methylphenylglycidate]", "CC50 at 24 h": "> 90"}]}, {"experiment": "in vitro", "details": "rat, gh3-tre-luc cells, AC50 (uM) modified / 1000, Tox21_110001=Tox21_300725; viability, 1 nM T3 present, 24 h", "units": {"CC50 at 24 h": "µM"}, "values": [{"smiles": "OCC(c1ccc(Cl)cc1)c1ccc(Cl)cc1", "note": "[2,2-Bis(4-chlorophenyl)ethanol]", "CC50 at 24 h": "> 90"}]}]}
